Inconclusive results and toxic doses are left out.
Tested on: BDF1 mice, P388 leukemia ip, median survival T/C
Test: NCI In Vivo Anticancer Drug Screen. Data for tumor model P388 Leukemia (intraperitoneal) in B6D2F1 (BDF1) mice
Conditions: endpoint: median survival time, higher = longer survival
In short: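 Mice carrying the transplantable tumour receive compound or vehicle. Survival is followed in each arm, and the treated measure is divided by the vehicle measure.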

[1] = dose: 100.0 mg/kg/injection, schedule: Q01DX009 (ip), vehicle: saline with Tween-80
[2] = dose: 400.0 mg/kg/injection, schedule: Q01DX009 (ip), vehicle: saline with Tween-80
[3] = dose: 100.0 mg/kg/injection, schedule: Q01DX001 (ip), vehicle: saline sonified

COC(=O)CCc1ccc(NP(=O)(N2CC2)N2CC2)cc1
T/C (dose: 66.0 mg/kg/injection, schedule: Q01DX009 (ip), vehicle: saline with Tween-80): 177 % of control
T/C (dose: 300.0 mg/kg/injection, schedule: Q04DX003 (ip), vehicle: saline with Tween-80): 154 % of control

C=CC1CCCCC1C=C (centres undefined)
T/C (dose: 25.0 mg/kg/injection, schedule: Q01DX009 (ip), vehicle: saline): 107 % of control
T/C (dose: 50.0 mg/kg/injection, schedule: Q01DX009 (ip), vehicle: saline): 88 % of control

Nc1cccc(OCCCCCOc2cccc(N)c2)c1
T/C (dose: 12.5 mg/kg/injection, schedule: Q01DX009 (ip), vehicle: Klucel (hydroxypropylcellulose) (HPC)): 96 % of control
T/C (dose: 25.0 mg/kg/injection, schedule: Q01DX009 (ip), vehicle: Klucel (hydroxypropylcellulose) (HPC)): 108 % of control
T/C (dose: 50.0 mg/kg/injection, schedule: Q01DX009 (ip), vehicle: Klucel (hydroxypropylcellulose) (HPC)): 94 % of control

O=C(O)CSc1ccc(NC(=O)NC2CCCCC2)cc1
T/C [1]: 105 % of control
T/C (dose: 200.0 mg/kg/injection, schedule: Q01DX009 (ip), vehicle: saline with Tween-80): 115 % of control
T/C [2]: 105 % of control

CN1CCCC(CC2c3ccccc3Sc3ccccc32)C1 (centres undefined)
T/C (dose: 7.5 mg/kg/injection, schedule: Q01DX010 (ip), vehicle: saline): 100 % of control
T/C (dose: 15.0 mg/kg/injection, schedule: Q01DX010 (ip), vehicle: saline): 100 % of control
T/C (dose: 30.0 mg/kg/injection, schedule: Q01DX010 (ip), vehicle: saline): 100 % of control
T/C (dose: 60.0 mg/kg/injection, schedule: Q01DX010 (ip), vehicle: saline): 109 % of control

OCn1cnc2c(SC3CCCC3)ncnc21
T/C (dose: 75.0 mg/kg/injection, schedule: Q01DX009 (ip), vehicle: Klucel (hydroxypropylcellulose) (HPC)): 120 % of control

CCCCC(NC(C)=O)C(=O)O (centres undefined)
T/C [1]: 119 % of control
T/C [2]: 113 % of control

CC1OC(=O)C(C(C)C)NC(=O)C(C(C)C)OC(=O)C(C(C)C)NC(=O)C(C)OC(=O)C(C(C)C)NC(=O)C(C(C)C)OC(=O)C(C(C)C)NC(=O)C(C)OC(=O)C(C(C)C)NC(=O)C(C(C)C)OC(=O)C(C(C)C)NC1=O (centres undefined)
T/C (dose: 3.12 mg/kg/injection, schedule: Q04DX003 (ip), vehicle: Klucel (hydroxypropylcellulose) (HPC)): 100 % of control
T/C (dose: 4.5 mg/kg/injection, schedule: Q01DX009 (ip), vehicle: saline): 162 % of control
T/C (dose: 6.25 mg/kg/injection, schedule: Q04DX003 (ip), vehicle: Klucel (hydroxypropylcellulose) (HPC)): 107 % of control
T/C (dose: 10.0 mg/kg/injection, schedule: Q01DX009 (ip), vehicle: saline): 183 % of control
T/C (dose: 12.5 mg/kg/injection, schedule: Q04DX003 (ip), vehicle: Klucel (hydroxypropylcellulose) (HPC)): 169 % of control
T/C (dose: 15.0 mg/kg/injection, schedule: Q01DX009 (ip), vehicle: saline): 177 % of control
T/C (dose: 20.0 mg/kg/injection, schedule: Q01DX009 (ip), vehicle: Klucel (hydroxypropylcellulose) (HPC)): 165 % of control

CCCCCC1(O)C2CCCC1CCC2 (centres undefined)
T/C (dose: 50.0 mg/kg/injection, schedule: Q01DX001 (ip), vehicle: saline sonified): 105 % of control
T/C (dose: 50.0 mg/kg/injection, schedule: Q01DX001 (ip), vehicle: suspension in saline): 98 % of control
T/C [3]: 105 % of control
T/C (dose: 100.0 mg/kg/injection, schedule: Q01DX001 (ip), vehicle: suspension in saline): 104 % of control
T/C (dose: 200.0 mg/kg/injection, schedule: Q01DX001 (ip), vehicle: suspension in saline): 107 % of control

O=C/C=C/c1ccc([N+](=O)[O-])cc1
T/C (dose: 25.0 mg/kg/injection, schedule: Q01DX009 (ip), vehicle: saline with Tween-80): 104 % of control
T/C (dose: 50.0 mg/kg/injection, schedule: Q01DX009 (ip), vehicle: saline with Tween-80): 108 % of control
T/C [1]: 91 % of control

COC(=O)CCCc1cc(O)c2c(c1O)C(=O)c1ccccc1C2=O
T/C [3]: 100 % of control
T/C (dose: 200.0 mg/kg/injection, schedule: Q01DX001 (ip), vehicle: saline sonified): 100 % of control
T/C (dose: 400.0 mg/kg/injection, schedule: Q01DX001 (ip), vehicle: saline sonified): 95 % of control

COc1cc(OC)cc(-c2n[se]c(-c3cc(OC)cc(OC)c3)n2)c1
T/C (dose: 0.19 mg/kg/injection, schedule: Q01DX009 (ip), vehicle: saline with Tween-80): 114 % of control
T/C (dose: 0.39 mg/kg/injection, schedule: Q01DX009 (ip), vehicle: saline with Tween-80): 98 % of control
T/C (dose: 0.78 mg/kg/injection, schedule: Q01DX009 (ip), vehicle: saline with Tween-80): 104 % of control
T/C (dose: 1.56 mg/kg/injection, schedule: Q01DX009 (ip), vehicle: saline with Tween-80): 107 % of control

— PubChem BioAssay AID328 (DTP/NCI, 2004)
